Results as given in PubChem BioAssay (NCI).
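Tested at 5 concentrations; 48 h exposure; 96-well plates; endpoints linearly interpolated, else capped at highest concentration. TGI denotes the concentration required for complete inhibition of growth.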

What was measured:
Assay in all cases: inhibition of tumour cell growth, NCI panel, 48 h
T-47D breast = system: T-47D breast
TK-10 renal = system: TK-10 renal
MOLT-4 leukemia = system: MOLT-4 leukemia
UO-31 renal = system: UO-31 renal
A498 renal = system: A498 renal
LOX IMVI melanoma = system: LOX IMVI melanoma
OVCAR-5 ovarian = system: OVCAR-5 ovarian
MDA-N = system: MDA-N
OVCAR-4 ovarian = system: OVCAR-4 ovarian
ACHN renal = system: ACHN renal
MDA-MB-231 breast = system: MDA-MB-231 breast
CCRF-CEM leukemia = system: CCRF-CEM leukemia
IGROV1 ovarian = system: IGROV1 ovarian
SK-MEL-2 melanoma = system: SK-MEL-2 melanoma
SW-620 colon = system: SW-620 colon
MCF7 breast = system: MCF7 breast
HCT-15 colon = system: HCT-15 colon
MALME-3M melanoma = system: MALME-3M melanoma
SR leukemia = system: SR leukemia
SK-MEL-5 melanoma = system: SK-MEL-5 melanoma
EKVX NSCLC = system: EKVX NSCLC
UACC-257 melanoma = system: UACC-257 melanoma
A549 NSCLC = system: A549 NSCLC
M14 melanoma = system: M14 melanoma
U251 CNS = system: U251 CNS
SK-MEL-28 melanoma = system: SK-MEL-28 melanoma
NCI/ADR-RES ovarian = system: NCI/ADR-RES ovarian
HOP-92 NSCLC = system: HOP-92 NSCLC
RXF 393 renal = system: RXF 393 renal
MDA-MB-435 = system: MDA-MB-435
CAKI-1 renal = system: CAKI-1 renal
NCI-H460 lung = system: NCI-H460 lung
HCC-2998 colon = system: HCC-2998 colon
RPMI-8226 leukemia = system: RPMI-8226 leukemia
K-562 leukemia = system: K-562 leukemia
SK-OV-3 ovarian = system: SK-OV-3 ovarian
HOP-62 NSCLC = system: HOP-62 NSCLC
OVCAR-8 ovarian = system: OVCAR-8 ovarian
SF-295 CNS = system: SF-295 CNS
DU-145 prostate = system: DU-145 prostate
HL-60(TB) leukemia = system: HL-60(TB) leukemia
OVCAR-3 ovarian = system: OVCAR-3 ovarian
SNB-19 CNS = system: SNB-19 CNS
PC-3 prostate = system: PC-3 prostate
UACC-62 melanoma = system: UACC-62 melanoma
SF-539 CNS = system: SF-539 CNS
HT29 colon = system: HT29 colon
COLO 205 colon = system: COLO 205 colon
NCI-H23 lung = system: NCI-H23 lung
SN12C renal = system: SN12C renal
SF-268 CNS = system: SF-268 CNS
HCT-116 colon = system: HCT-116 colon
NCI-H226 lung = system: NCI-H226 lung
KM12 colon = system: KM12 colon
SNB-75 CNS = system: SNB-75 CNS
NCI-H522 lung = system: NCI-H522 lung
786-0 renal = system: 786-0 renal
BT-549 breast = system: BT-549 breast
HS 578T breast = system: HS 578T breast

Measured: TGI

CCOC(=O)c1csc(NC(=O)CCN2CCCCC2)n1
not listed: SN12C renal | SF-268 CNS | HCT-116 colon | NCI-H226 lung | KM12 colon | SNB-75 CNS | NCI-H522 lung | 786-0 renal | BT-549 breast | HS 578T breast
> 100 µM: all other assays above

CC1(C)CC(=O)C2=C(C1)OC1=C(C(=O)CC(C)(C)C1)C2CC(c1ccccc1)c1ccc(O)c(O)c1O (configuration not stated)
not listed: T-47D breast | MOLT-4 leukemia | A498 renal | LOX IMVI melanoma | CCRF-CEM leukemia | SK-MEL-2 melanoma | MCF7 breast | MALME-3M melanoma | SR leukemia | UACC-257 melanoma | SK-MEL-28 melanoma | NCI-H460 lung | HCC-2998 colon | RPMI-8226 leukemia | K-562 leukemia | SK-OV-3 ovarian | HOP-62 NSCLC | HL-60(TB) leukemia | UACC-62 melanoma | COLO 205 colon | NCI-H522 lung | 786-0 renal | BT-549 breast | HS 578T breast
> 10 µM: all other assays above

OC12COc3ccccc3C1Oc1ccccc1C2 (configuration not stated)
not listed: SR leukemia | SK-MEL-28 melanoma | RXF 393 renal | NCI-H460 lung | HL-60(TB) leukemia | SNB-19 CNS | HS 578T breast
> 100 µM: all other assays above

O=C(O)C1CCCN1Cc1cc2ccccc2c2ccccc12 (configuration not stated)
not listed: CCRF-CEM leukemia | SR leukemia | HCC-2998 colon
> 100 µM: all other assays above
